Results as given in patent publication US9856250B2, “Substituted tropane derivatives” (TOA EIYO LTD., priority 2014, dated 2018).
Where two headings read alike, the source gives them in different places.

Experiments:
[1] = tested on: Salmonella typhimurium TA98 and TA100; test: Reverse mutation test (Ames test), pre-incubation method; format: cell-based; conditions: strains TA98 and TA100; for Ames test S9 (−): absence of metabolic activation system (S9mix (−)); for Ames test S9 (+): presence of metabolic activation system (rat liver S9mix (+))
Experimental: The presence or absence of genotoxicity in the compounds of the present invention was evaluated by a reverse mutation test (Ames test) using bacteria. The test was performed by a pre-incubation method using two bacterial strains of Salmonella typhimurium TA98 and TA100, in the absence of a metabolic activation system (S9mix (−)) and in the presence of a metabolic activation system (S9mix (+)). The compounds were dissolved in dimethyl sulfoxide (DMSO), and thus test liquids were prepared. Regarding the negative control, the solvent DMSO was used. Regarding the positive control, 2-(2-furyl)-3-(5-nitro-2-furyl)acrylamide (AF-2) was used for S9mix (−), and 2-aminoanthracene (2-AA) was used for S9mix (+).
0.1 mL of a test liquid was introduced into a sterilized test tube, and then 0.5 mL of a 0.1 mol/L sodium phosphate buffer solution (pH 7.4) was added to the test tube in the case of S9mix (−), or 0.5 mL of rat liver S9mix was added to the test tube in the case of S9mix (+). Furthermore, 0.1 mL of a precultured test strain suspension was added to the test tube, and then the test strain was subjected to shaking culture for 20 minutes at 37° C. (preincubation). […] Subsequently, the content of the test tube was superposed on a minimum glucose agar medium plate and was spread evenly. The plate was cultured for 48 hours at 37° C. in a thermostat. After completion of culture, the number of reverse mutation colonies grown on the plate was measured using a colony counter. Regarding the determination, a case in which the number of reverse mutation colonies increased to twice or more of the number of colonies of the negative control, and concentration-dependency was recognized, was regarded as positive. […]

[2] = biological target: human T-type calcium channels (human Cav3.2) (Homo sapiens (Human), UniProt O95180); test: Antagonistic activity against T-type calcium channels (Cav3.2), Fura2 intracellular calcium assay in HEK293 cells; format: cell-based
Chain of human T-type calcium channels (human Cav3.2) (O95180 whole entry): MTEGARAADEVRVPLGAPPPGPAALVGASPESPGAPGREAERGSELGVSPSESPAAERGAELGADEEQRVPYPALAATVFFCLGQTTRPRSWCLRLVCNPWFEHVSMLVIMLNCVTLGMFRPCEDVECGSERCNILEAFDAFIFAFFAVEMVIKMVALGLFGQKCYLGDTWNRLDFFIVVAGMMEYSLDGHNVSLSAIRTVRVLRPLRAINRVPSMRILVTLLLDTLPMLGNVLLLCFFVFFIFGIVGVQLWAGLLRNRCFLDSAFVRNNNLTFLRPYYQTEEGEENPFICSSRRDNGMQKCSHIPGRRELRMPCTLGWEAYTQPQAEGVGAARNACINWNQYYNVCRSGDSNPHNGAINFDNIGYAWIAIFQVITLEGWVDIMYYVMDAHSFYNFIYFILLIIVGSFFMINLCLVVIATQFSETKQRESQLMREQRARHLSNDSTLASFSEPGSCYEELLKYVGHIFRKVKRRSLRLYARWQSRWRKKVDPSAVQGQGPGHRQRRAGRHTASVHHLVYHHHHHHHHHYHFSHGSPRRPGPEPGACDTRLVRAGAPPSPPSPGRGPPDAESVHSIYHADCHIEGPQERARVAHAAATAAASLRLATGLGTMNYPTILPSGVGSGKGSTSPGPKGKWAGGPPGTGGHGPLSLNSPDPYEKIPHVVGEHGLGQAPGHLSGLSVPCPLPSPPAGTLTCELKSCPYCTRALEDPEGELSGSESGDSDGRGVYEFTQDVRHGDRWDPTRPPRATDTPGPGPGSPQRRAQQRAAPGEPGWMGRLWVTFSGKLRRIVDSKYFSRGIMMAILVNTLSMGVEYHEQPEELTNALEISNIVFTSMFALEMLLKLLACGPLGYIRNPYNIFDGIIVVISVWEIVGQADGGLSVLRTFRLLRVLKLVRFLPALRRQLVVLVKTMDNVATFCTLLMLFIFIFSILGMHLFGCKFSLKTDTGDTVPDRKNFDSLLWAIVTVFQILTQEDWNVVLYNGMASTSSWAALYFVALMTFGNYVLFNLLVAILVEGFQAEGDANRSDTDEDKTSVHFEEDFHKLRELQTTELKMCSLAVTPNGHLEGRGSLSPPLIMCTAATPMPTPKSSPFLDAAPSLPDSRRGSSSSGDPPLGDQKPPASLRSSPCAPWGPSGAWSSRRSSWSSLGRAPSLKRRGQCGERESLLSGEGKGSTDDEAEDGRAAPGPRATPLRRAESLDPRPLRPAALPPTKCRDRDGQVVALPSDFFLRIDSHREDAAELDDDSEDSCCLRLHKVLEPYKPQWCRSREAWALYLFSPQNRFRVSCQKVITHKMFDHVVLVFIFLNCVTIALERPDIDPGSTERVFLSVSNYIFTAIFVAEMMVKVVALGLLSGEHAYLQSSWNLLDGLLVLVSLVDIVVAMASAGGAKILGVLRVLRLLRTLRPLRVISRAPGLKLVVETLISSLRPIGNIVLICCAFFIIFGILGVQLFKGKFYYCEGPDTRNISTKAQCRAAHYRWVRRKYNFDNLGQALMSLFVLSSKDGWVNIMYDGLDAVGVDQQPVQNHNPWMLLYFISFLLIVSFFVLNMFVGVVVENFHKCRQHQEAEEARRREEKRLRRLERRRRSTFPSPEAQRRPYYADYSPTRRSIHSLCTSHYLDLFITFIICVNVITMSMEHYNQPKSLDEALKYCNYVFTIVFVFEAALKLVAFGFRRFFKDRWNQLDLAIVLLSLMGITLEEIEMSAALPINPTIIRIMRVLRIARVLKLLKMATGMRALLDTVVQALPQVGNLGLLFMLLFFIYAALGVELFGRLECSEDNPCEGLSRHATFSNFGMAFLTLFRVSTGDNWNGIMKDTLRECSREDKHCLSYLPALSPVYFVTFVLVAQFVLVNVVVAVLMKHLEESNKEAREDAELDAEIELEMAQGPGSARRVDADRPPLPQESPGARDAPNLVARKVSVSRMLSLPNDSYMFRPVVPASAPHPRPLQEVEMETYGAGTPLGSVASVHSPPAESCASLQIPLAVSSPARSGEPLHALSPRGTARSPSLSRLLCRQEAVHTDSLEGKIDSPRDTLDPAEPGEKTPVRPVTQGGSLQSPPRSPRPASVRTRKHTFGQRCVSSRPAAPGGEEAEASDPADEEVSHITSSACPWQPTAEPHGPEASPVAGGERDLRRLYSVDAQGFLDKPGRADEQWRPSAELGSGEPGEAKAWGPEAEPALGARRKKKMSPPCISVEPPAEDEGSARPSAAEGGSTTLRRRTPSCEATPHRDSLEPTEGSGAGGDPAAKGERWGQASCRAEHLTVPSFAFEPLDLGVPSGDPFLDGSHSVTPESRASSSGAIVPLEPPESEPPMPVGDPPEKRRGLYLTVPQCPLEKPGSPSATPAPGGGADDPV
Experimental: For representative compounds of the present invention, the antagonistic activity against T-type calcium channels (Cav3.2) was examined by the Test Examples described below. For the respective tests, human embryo kidney cells (HEK293 cells) in which human T-type calcium channels (human Cav3.2) were stably expressed were used.
The HEK293 cells having human Cav3.2 stably expressed therein were cultured at 37° C. in Alpha-MEM, to which 10% (v/v) fetal bovine serum (FBS), penicillin (100 U/mL), streptomycin (100 μg/mL), and G418 ([…]) had been added. The cells were suspended in the culture liquid and were inoculated onto a 96-well plate. Subsequently, the cells were cultured for 48 hours. The culture liquid was removed, and the liquid was changed to S-MEM, to which 5% (v/v) FBS, calcium chloride (0.5 mmol/L), L-glutamine (2 mmol/L), L-alanine (8.9 ng/mL), L-asparagine (13.2 ng/mL), L-aspartic acid (1.33 ng/mL), L-glutamic acid (14.7 ng/mL), glycine (7.5 ng/mL), L-proline (11.5 ng/mL, L-serine (10.5 ng/mL), penicillin (100 U/mL), and streptomycin (100 μg/mL) had been added. The cells were cultured for another 24 hours. The culture liquid was removed again, and the cells were washed with an assay buffer (140 mmol/L sodium chloride, 5 mmol/L potassium chloride, 0.5 mmol/L magnesium chloride, 0.5 mmol/L calcium chloride, 10 mmol/L glucose, 0.4 mmol/L magnesium sulfate, 10 mmol/L HEPES, and […] sulfinpyrazone, pH 7.4) that had been kept warm at 37° C. Subsequently, an assay buffer prepared by dissolving Fura2-AM, which is a fluorescent Ca^2+ indicator, to a concentration of 5 μM, was added to the cells, and the system was incubated for 30 minutes at 37° C. The assay buffer having Fura2 dissolved therein was removed, and the cells were washed with the assay buffer. Subsequently, an assay buffer prepared by adding a test compound was added to the cells, and the system was incubated for 15 minutes. The plate was mounted on a fluorescence analyzer (FLEX STATION II, Molecular Devices, LLC), and the baseline was measured for 20 seconds. Subsequently, any change in the intracellular calcium concentration that was induced when an assay buffer prepared by adding 100 mmol/L calcium chloride was added to the cells, was measured (excited at 340 nm or 380 nm, and detected at 510 nm). The fluorescence intensity ratios obtainable at the respective wavelengths were calculated.
Meanwhile, the test compound solution was prepared by dissolving each test compound in DMSO to a concentration of 10 mmol/L, and then adjusting the concentration with the assay buffer so as to obtain the set concentration. For the control solution, DMSO was used instead of a test compound.
The inhibitory activity level (%) of a test compound was calculated by subtracting the average value of the fluorescence intensity ratio for a period of 0 to 20 seconds after initiation of measurement, from the average value of the fluorescence intensity ratio for a period of 45 to 50 seconds after initiation of measurement, taking the value obtained using the control solution as the maximum activity of Cav3.2, and comparing this value with the activity in the presence of the test compound.
Calculation of IC50 Value:
The inhibitory activity of each test compound was measured at concentrations of […], and the IC50 value was calculated using the curve fitting formula (Model 08: sigmoidal inhibition curve) of ASSAY EXPLORER (Symyx Technologies, Inc.).
Average of RFU value obtained for 25 to 30 seconds after the addition of a […] assay buffer after treatment with the control solution (for 45 to 50 seconds after the initiation of measurement). The RFU in the formula represents the Relative Fluorescence Unit.

[3] = HEK293 cells stably expressing human Cav3.2, Fura2 fluorescence ratio after calcium chloride addition, read-out: IC50

For `Cc1cccc2[nH]c(CC3CCN(CC(=O)NC(C)(C)C)CC3)nc12` [Control Compound 1, N-tert-Butyl-2-[4-(4-methyl-1H-benzimidazol-2-yl)methylpiperidin-1-yl]acetamide, reference compound], the “Ames test S9 (−)” value [1] was “Negative” and the “Ames test S9 (+)” value [1] was “Positive”.

With `COc1cccc2[nH]c(CC3CCN(CC(=O)NC(C)(C)C)CC3)nc12` [Control Compound 2, N-tert-Butyl-2-[4-(4-methoxy-1H-benzimidazol-2-yl)methylpiperidin-1-yl]acetamide, reference compound] the “Ames test S9 (−)” value [1] was “Negative” and the “Ames test S9 (+)” value [1] was “Positive”.

`CC(C)(C)NC(=O)CN1CCC(Cc2nc3ccc4c(c3[nH]2)OCCO4)CC1.Cl.Cl` [Control Compound 3, N-tert-Butyl-2-[4-(5,6-dihydro-1H-[1,4]dioxino[2,3-e]benzimidazol-2-yl)methylpiperidin-1-yl]acetamide dihydrochloride, reference compound] was tested, and the “Ames test S9 (−)” value [1] was “Negative” and the “Ames test S9 (+)” value [1] was “Positive”.

In the case of `CC(C)(C)NC(=O)CN1[C@@H]2CC[C@H]1C[C@H](CNC(=O)c1cc(F)cc(Cl)c1)C2` [Example 54], the IC50 [2] is reported as 20 nM, the “Ames test S9 (−)” value [1] is reported as “Negative” and the “Ames test S9 (+)” value [1] is reported as “Negative”.

For `COc1ccc2[nH]c(C[C@@H]3C[C@H]4CC[C@@H](C3)N4CC(=O)NC(C)(C)C)nc2c1OC` [Example 122], the IC50 [2, 3] was 138 nM.

In the case of `CC(C)(C)NC(=O)CN1[C@@H]2CC[C@H]1C[C@H](Cc1nc3c4c(ccc3[nH]1)OCCO4)C2` [Example 123, N-tert-Butyl-2-[(exo)-3-(5,6-dihydro-1H-[1,4]dioxino[2,3-e]benzimidazol-2-yl)methyl-8-azabicyclo[3.2.1]octan-8-yl]acetamide], the “Ames test S9 (−)” value [1] is reported as “Negative” and the “Ames test S9 (+)” value [1] is reported as “Negative”.

`COc1cccc2[nH]c(C[C@@H]3C[C@H]4CC[C@@H](C3)N4CC(=O)NC(C)(C)C)nc12` [Example 124] showed an IC50 [2, 3] of 96 nM.

`CC(C)(C)CNC(=O)C[C@H]1C[C@H]2CC[C@@H](C1)N2CC(=O)NC(C)(C)C` [Example 127, 2-[(endo)-8-(tert-Butylcarbamoyl)methyl-8-azabicyclo[3.2.1]octan-3-yl]-N-(2,2-dimethylpropyl) acetamide] was tested, and the IC50 [2, 3] was 73 nM.

`CC(C)(C)NC(=O)CN1[C@@H]2CC[C@H]1C[C@@H](CC(=O)NC13CC4CC(CC(C4)C1)C3)C2` [Example 129, N-(Adamantan-1-yl)-2-[(endo)-8-(tert-butylcarbamoyl)methyl-8-azabicyclo[3.2.1]octan-3-yl]acetamide] was tested, and the IC50 [2, 3] was 66 nM.

`CC(C)(C)NC(=O)CN1[C@@H]2CC[C@H]1C[C@@H](CC(=O)NC13CC4CC(CC1C4)C3)C2` [Example 131] gave an IC50 [2, 3] of 49 nM.

Compound `CC(C)(C)NC(=O)CN1[C@@H]2CC[C@H]1C[C@@H](CNC(=O)C13CC4CC(CC(C4)C1)C3)C2` [Example 144, N-[(endo)-8-(tert-Butylcarbamoyl)methyl-8-azabicyclo[3.2.1]octan-3-yl]methyladamantane-1-carboxamide] has an IC50 [2, 3] of 44 nM.

In the case of `COc1cccc2[nH]c(C[C@H]3C[C@H]4CC[C@@H](C3)N4CC(=O)NC(C)(C)C)nc12` [Example 145, N-tert-Butyl-2-[(endo)-3-(4-methoxy-1H-benzimidazol-2-yl)methyl-8-azabicyclo[3.2.1]octan-8-yl]acetamide], the IC50 [2, 3] is reported as 98 nM, the “Ames test S9 (−)” value [1] is reported as “Negative” and the “Ames test S9 (+)” value [1] is reported as “Negative”.

With `Cc1cccc2[nH]c(C[C@H]3C[C@H]4CC[C@@H](C3)N4CC(=O)NC(C)(C)C)nc12` [Example 147] the IC50 [2, 3] was 83 nM.

With `CC(C)(C)NC(=O)CN1[C@@H]2CC[C@H]1C[C@@H](CC(=O)NC13CC4CC(CC(C4)O1)C3)C2.Cl` [Example 152, 2-[(endo)-8-(tert-Butylcarbamoyl)methyl-8-azabicyclo[3.2.1]octan-3-yl]-N-(2-oxaadamantan-1-yl)acetamide hydrochloride] the “Ames test S9 (−)” value [1] was “Negative” and the “Ames test S9 (+)” value [1] was “Negative”.

Compound `COc1cc(F)c2nc(C[C@@H]3C[C@H]4CC[C@@H](C3)N4CC(=O)NC(C)(C)C)[nH]c2c1` [Example 154] has an IC50 [2] of 78 nM.

For `COc1ccc2[nH]c(C[C@@H]3C[C@H]4CC[C@@H](C3)N4CC(=O)NC(C)(C)C)nc2c1OC` [Example 155], the “Ames test S9 (−)” value [1] was “Negative” and the “Ames test S9 (+)” value [1] was “Negative”.

For `COc1ccc(OC)c2[nH]c(C[C@@H]3C[C@H]4CC[C@@H](C3)N4CC(=O)NC(C)(C)C)nc12` [Example 172], the “Ames test S9 (−)” value [1] was “Negative” and the “Ames test S9 (+)” value [1] was “Negative”.

With `Cc1cc(C(=O)NC[C@@H]2C[C@H]3CC[C@@H](C2)N3CC(=O)NC(C)(C)C)n(C)n1` [Example 174] the “Ames test S9 (−)” value [1] was “Negative” and the “Ames test S9 (+)” value [1] was “Negative”.
